Assay results taken from article PMC7339578, “Multiple circulating alkaloids and saponins from intravenous Kang-Ai injection inhibit human cytochrome P450 and UDP-glucuronosyltransferase isozymes: potential drug–drug interactions” (Chinese Medicine, 2020).
Like-named read-outs stand apart in the source and are kept apart here.

Experiments:
[1] = Stability tests of analytes in rat plasma QC samples; format: in vitro ADME; conditions: rat plasma
Method: […] The dilution integrity was investigated by analyzing six replicate samples with each analyte, and each analyte were diluted 10-fold with blank rat matrix. Furthermore, the diluted samples were analyzed using freshly prepared calibration curve to calculate RE and RSD, which should be no more than ± 15% as criterion.

CYP2C8 = molecular target: T1, CYP2C8 (Homo sapiens, UniProt P10632); assay: Inhibition of recombinant CYP2C8 (probe paclitaxel); format: in vitro ADME; conditions: recombinant isozyme; mean ± SD of triplicate; unit not given (IC50 classes in μM); read-out: IC50 towards CYP2C8
T1 sequence (P10632 1-490): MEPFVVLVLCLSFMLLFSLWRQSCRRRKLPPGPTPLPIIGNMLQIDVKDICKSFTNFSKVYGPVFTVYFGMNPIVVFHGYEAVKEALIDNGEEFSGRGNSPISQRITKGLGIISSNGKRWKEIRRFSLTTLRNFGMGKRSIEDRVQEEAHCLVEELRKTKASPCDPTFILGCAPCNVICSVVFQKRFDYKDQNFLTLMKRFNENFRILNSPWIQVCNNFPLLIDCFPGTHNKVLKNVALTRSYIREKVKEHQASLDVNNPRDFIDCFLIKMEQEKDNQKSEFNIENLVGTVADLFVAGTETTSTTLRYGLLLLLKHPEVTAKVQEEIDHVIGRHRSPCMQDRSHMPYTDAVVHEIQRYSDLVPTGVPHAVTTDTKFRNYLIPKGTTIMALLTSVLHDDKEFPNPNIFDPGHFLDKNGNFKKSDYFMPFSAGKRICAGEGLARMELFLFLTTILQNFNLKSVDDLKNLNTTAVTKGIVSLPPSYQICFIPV
Method: (§1) In this study, phenacetin (100 μM), coumarin (100 μM), bupropion (100 μM), paclitaxel (60 μM), tolbutamide (200 μM), mephenytoin (100 μM), chlorzoxazone (200 μM) and nifedipine (40 μM) have been used as the probe substrates for CYP1A2, 2A6, 2B6, 2C8, 2C9, 2C19, 2E1 and 3A4, respectively.

CYP2B6 = molecular target: T2, CYP2B6 (Homo sapiens, UniProt P20813); assay: Inhibition of recombinant CYP2B6 (probe bupropion); format: in vitro ADME
T2 sequence (P20813 1-491): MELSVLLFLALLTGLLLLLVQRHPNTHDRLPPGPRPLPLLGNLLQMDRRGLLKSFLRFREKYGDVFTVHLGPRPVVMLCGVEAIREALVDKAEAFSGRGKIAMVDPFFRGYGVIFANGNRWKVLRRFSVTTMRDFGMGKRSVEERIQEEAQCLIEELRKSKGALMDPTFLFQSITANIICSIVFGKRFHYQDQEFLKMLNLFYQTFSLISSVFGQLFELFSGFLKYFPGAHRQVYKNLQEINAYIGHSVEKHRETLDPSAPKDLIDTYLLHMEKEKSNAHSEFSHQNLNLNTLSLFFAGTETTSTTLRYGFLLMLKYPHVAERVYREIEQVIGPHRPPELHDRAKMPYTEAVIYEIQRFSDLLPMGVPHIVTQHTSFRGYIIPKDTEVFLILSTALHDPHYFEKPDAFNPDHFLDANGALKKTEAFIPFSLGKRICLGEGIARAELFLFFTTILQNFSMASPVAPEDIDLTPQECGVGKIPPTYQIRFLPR
Method: as §1

CYP2E1 = CYP2E1 (Homo sapiens, UniProt P05181); assay: Inhibition of recombinant CYP2E1 (probe chlorzoxazone)
Method: Phase I incubation system (100 μL) contained Tris–HCl buffer (50 mM, pH = 7.4), MgCl2 (5 mM), each CYP isozyme, specific substrates, circulating compounds and NADPH (1 mM) as prescribed previously. After incubation (37 °C, 60 min), the reaction was terminated by ice-cold acetonitrile (100 μL), following by centrifugation at 13,800g for 10 min. The supernatant (8 μL) was acquired for ultra-high-performance liquid chromatography (UHPLC) system (Waters, Manchester, UK) analysis.
After optimization of incubation conditions (Additional file 1: Fig. S1), the substrates were incubated with each CYP isozyme at different protein concentrations (0.05 mg/mL for CYP1A2 and 3A4; 0.1 mg/mL for CYP2A6, 2B6, 2C8, 2C9, 2C19 and 2E1) in the absence (control) and presence of different mixture or herbal compounds (Kang-Ai injection and samples that Kang-Ai injection was diluted 10 times; 1, 10, and 100 μM for matrine and oxymatrine; 0.1, 1, 10 and 100 μM for astragalosides and ginsenosides).
The half-inhibition concentration (IC50) values were determined by non-linear regression analysis. […] The inhibition mechanism towards corresponding CYP and UGT isoforms were further explored.
The inhibition constant (Ki) values were obtained by multiple concentrations of substrates in the absence or presence of multiple concentrations of herbal compounds as described previously. […] (1)–(3), respectively. The model with the smallest Akaike information criterion (AIC) and Schwartz information criterion (SC) values was considered as the best model, following the obtained appropriate Ki values. Model fitting and parameter estimation were performed using Graphpad Prism V5 software (SanDiego, CA).

[2] = recombinant isozyme, mean ± SD of triplicate, unit not given (IC50 classes in μM), read-out: IC50 towards CYP2B6

CYP2E1, sequence (P05181 whole entry): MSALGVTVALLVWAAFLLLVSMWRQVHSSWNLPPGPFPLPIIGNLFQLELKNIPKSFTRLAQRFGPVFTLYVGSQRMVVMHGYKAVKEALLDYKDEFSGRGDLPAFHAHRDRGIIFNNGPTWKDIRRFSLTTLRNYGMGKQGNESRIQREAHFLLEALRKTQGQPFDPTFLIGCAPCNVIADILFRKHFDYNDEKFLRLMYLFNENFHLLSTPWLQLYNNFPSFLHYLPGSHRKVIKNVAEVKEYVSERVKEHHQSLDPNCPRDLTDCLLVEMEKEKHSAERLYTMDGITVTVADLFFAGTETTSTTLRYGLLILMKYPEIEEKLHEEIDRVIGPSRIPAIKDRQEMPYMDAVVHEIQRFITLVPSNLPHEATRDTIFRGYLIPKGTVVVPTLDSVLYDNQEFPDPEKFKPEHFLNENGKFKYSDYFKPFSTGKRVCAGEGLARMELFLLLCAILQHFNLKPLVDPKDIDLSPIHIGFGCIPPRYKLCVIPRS

SMILES	At -80 °C for 48 h, Mean±SD ([1]; nominal conc. 20 nM)	At -80 °C for 48 h, RE ([1]; nominal conc. 20 nM)	Extracted samples at 8 °C for 18 h, Mean±SD ([1]; nominal conc. 20 nM)	Extracted samples at 8 °C for 18 h, RE ([1]; nominal conc. 20 nM)	Short-term stability at room temperature for 6 h, Mean±SD ([1]; nominal conc. 20 nM)	Short-term stability at room temperature for 6 h, RE ([1]; nominal conc. 20 nM)	Three freeze-thaw cycles (-80 °C ↔ 23 °C), Mean±SD ([1]; nominal conc. 20 nM)	Three freeze-thaw cycles (-80 °C ↔ 23 °C), RE ([1]; nominal conc. 20 nM)	At -80 °C for 48 h, Mean±SD ([1]; nominal conc. 100 nM)	At -80 °C for 48 h, RE ([1]; nominal conc. 100 nM)	At -80 °C for 48 h, Mean±SD ([1]; nominal conc. 400 nM)	At -80 °C for 48 h, RE ([1]; nominal conc. 400 nM)	Extracted samples at 8 °C for 18 h, Mean±SD ([1]; nominal conc. 400 nM)	Extracted samples at 8 °C for 18 h, RE ([1]; nominal conc. 400 nM)	Short-term stability at room temperature for 6 h, Mean±SD ([1]; nominal conc. 400 nM)	Short-term stability at room temperature for 6 h, RE ([1]; nominal conc. 400 nM)	Three freeze-thaw cycles (-80 °C ↔ 23 °C), Mean±SD ([1]; nominal conc. 400 nM)	Three freeze-thaw cycles (-80 °C ↔ 23 °C), RE ([1]; nominal conc. 400 nM)	IC50 (CYP2C8)	IC50 (CYP2B6; [2])	further results
CC(C)=CCC[C@](C)(O[C@@H]1O[C@H](CO)[C@@H](O)[C@H](O)[C@H]1O)[C@H]1CC[C@]2(C)[C@@H]1[C@H](O)C[C@@H]1[C@@]3(C)CC[C@H](O[C@@H]4O[C@H](CO)[C@@H](O)[C@H](O)[C@H]4O[C@@H]4O[C@H](CO)[C@@H](O)[C@H](O)[C@H]4O)C(C)(C)[C@@H]3CC[C@]12C [Compound D2, Ginsenoside Rd]	20.86 ± 2.70 nM	13.40%	21.52 ± 1.04 nM	11.29%	20.41 ± 1.88 nM	-8.78%	21.38 ± 0.85 nM	11.74%	94.76 ± 3.45 nM	-9.18%	419.98 ± 19.52 nM	10.54%	411.97 ± 35.80 nM	9.32%	362.78 ± 5.91 nM	-10.80%	397.28 ± 35.89 nM	9.66%	> 100 µM	20.2 ± 12.4 µM	Extracted samples at 8 °C for 18 h, Mean±SD ([1]; nominal conc. 100 nM): 93.92 ± 4.07 nM; Extracted samples at 8 °C for 18 h, RE ([1]; nominal conc. 100 nM): -9.39%; Short-term stability at room temperature for 6 h, Mean±SD ([1]; nominal conc. 100 nM): 96.61 ± 5.06 nM; Short-term stability at room temperature for 6 h, RE ([1]; nominal conc. 100 nM): -8.93%; Three freeze-thaw cycles (-80 °C ↔ 23 °C), Mean±SD ([1]; nominal conc. 100 nM): 101.66 ± 11.99 nM; Three freeze-thaw cycles (-80 °C ↔ 23 °C), RE ([1]; nominal conc. 100 nM): 13.24%; inhibition type (smallest AIC and SC) (CYP2B6; CYP2B6): Noncompetitive inhibition; Ki (CYP2B6; CYP2B6, competitive model): 10.2 ± 2.1 µM; Ki (CYP2B6; CYP2B6, mixed-type model): 36.3 ± 10.2 µM; α (CYP2B6; CYP2B6, mixed-type model): 1.0 ± 0.4; Ki (CYP2B6; CYP2B6, noncompetitive model): 37.2 ± 2.3 µM; Cmax/Ki ([I]/Ki) (CYP2B6; CYP2B6, selected model, rat plasma Cmax): 0.02; IC50 (CYP2B6; bupropion 100 μM, read-out: IC50 against CYP2B6): 20.2 µM; IC50 (CYP2E1): > 100 µM
CC(C)(O)[C@@H]1CC[C@](C)([C@H]2[C@@H](O)C[C@@]3(C)[C@@H]4C[C@H](O[C@@H]5O[C@H](CO)[C@@H](O)[C@H](O)[C@H]5O)[C@H]5C(C)(C)[C@@H](O[C@@H]6OC[C@@H](O)[C@H](O)[C@H]6O)CC[C@@]56C[C@@]46CC[C@]23C)O1 [Compound B2, Astragaloside IV]	–	–	–	–	–	–	–	–	–	–	378.90 ± 6.78 nM	-7.16%	376.72 ± 29.81 nM	-10.44%	361.42 ± 15.40 nM	-13.36%	385.93 ± 32.19 nM	-12.56%	> 100 µM	> 100 µM	At -80 °C for 48 h, Mean±SD ([1]; nominal conc. 80 nM): 87.06 ± 0.84 nM; At -80 °C for 48 h, RE ([1]; nominal conc. 80 nM): 9.91%; Extracted samples at 8 °C for 18 h, Mean±SD ([1]; nominal conc. 80 nM): 80.76 ± 10.01 nM; Extracted samples at 8 °C for 18 h, RE ([1]; nominal conc. 80 nM): -13.07%; Short-term stability at room temperature for 6 h, Mean±SD ([1]; nominal conc. 80 nM): 82.35 ± 9.84 nM; Short-term stability at room temperature for 6 h, RE ([1]; nominal conc. 80 nM): -11.26%; Three freeze-thaw cycles (-80 °C ↔ 23 °C), Mean±SD ([1]; nominal conc. 80 nM): 88.56 ± 1.31 nM; Three freeze-thaw cycles (-80 °C ↔ 23 °C), RE ([1]; nominal conc. 80 nM): 12.35%; At -80 °C for 48 h, Mean±SD ([1]; nominal conc. 1600 nM): 1507.16 ± 152.79 nM; At -80 °C for 48 h, RE ([1]; nominal conc. 1600 nM): -12.08%; Extracted samples at 8 °C for 18 h, Mean±SD ([1]; nominal conc. 1600 nM): 1574.79 ± 151.38 nM; Extracted samples at 8 °C for 18 h, RE ([1]; nominal conc. 1600 nM): -11.93%; Short-term stability at room temperature for 6 h, Mean±SD ([1]; nominal conc. 1600 nM): 1463.38 ± 60.14 nM; Short-term stability at room temperature for 6 h, RE ([1]; nominal conc. 1600 nM): -11.64%; Three freeze-thaw cycles (-80 °C ↔ 23 °C), Mean±SD ([1]; nominal conc. 1600 nM): 1434.32 ± 47.18 nM; Three freeze-thaw cycles (-80 °C ↔ 23 °C), RE ([1]; nominal conc. 1600 nM): -13.10%; IC50 (CYP2E1; read-out: IC50 towards CYP2E1, recombinant isozyme, mean ± SD of triplicate, unit not given (IC50 classes in μM)): > 100 µM
CC(C)=CCC[C@](C)(O[C@@H]1O[C@H](CO[C@@H]2O[C@H](CO)[C@@H](O)[C@H](O)[C@H]2O)[C@@H](O)[C@H](O)[C@H]1O)[C@H]1CC[C@]2(C)[C@@H]1[C@H](O)C[C@@H]1[C@@]3(C)CC[C@H](O[C@@H]4O[C@H](CO)[C@@H](O)[C@H](O)[C@H]4O[C@@H]4O[C@H](CO)[C@@H](O)[C@H](O)[C@H]4O)C(C)(C)[C@@H]3CC[C@]12C [Compound D5, Ginsenoside Rb1]	20.64 ± 1.63 nM	8.70%	17.96 ± 0.32 nM	-11.74%	20.30 ± 1.81 nM	9.00%	19.99 ± 1.88 nM	-10.85%	94.32 ± 8.04 nM	-13.46%	428.49 ± 29.97 nM	12.25%	409.55 ± 29.87 nM	9.12%	388.96 ± 18.81 nM	-6.00%	441.95 ± 3.33 nM	11.44%	> 100 µM	> 100 µM	Extracted samples at 8 °C for 18 h, Mean±SD ([1]; nominal conc. 100 nM): 101.02 ± 12.87 nM; Extracted samples at 8 °C for 18 h, RE ([1]; nominal conc. 100 nM): -13.83%; Short-term stability at room temperature for 6 h, Mean±SD ([1]; nominal conc. 100 nM): 91.65 ± 3.42 nM; Short-term stability at room temperature for 6 h, RE ([1]; nominal conc. 100 nM): -12.30%; Three freeze-thaw cycles (-80 °C ↔ 23 °C), Mean±SD ([1]; nominal conc. 100 nM): 108.29 ± 6.26 nM; Three freeze-thaw cycles (-80 °C ↔ 23 °C), RE ([1]; nominal conc. 100 nM): 12.24%; IC50 (CYP2E1): > 100 µM
